Experimental data from US20110152340A1, “Methods for Identifying Subjects With an Increased Likelihood of Responding to DPP-IV Inhibitors” (BRISTOL-MYERS SQUIBB COMPANY, priority 2008, published 2011).

Assays:
Assay type in all cases: in vivo, human
[1] = Saxagliptin clinical trials (Trial A and Trial B): HbA1c response by SNP genotype
Experimental: The association between the SNPs and the response to saxagliptin was evaluated in two ways. SNPs from the genome-wide SNP panel were tested for association with response to DPP-IV inhibitors by two analytical methodologies. In one method, SNPs were identified with significant differences in mean HBA1C response among individuals with different genotypes on treatment, taking into account covariates such as demographic differences with an analysis of covariance (ANCOVA) statistical model. SNPs with consistent in their effect on HBA1C in both trials were considered for further evaluation. In a second method, SNPs were examined for association with response cluster. SNPs consistently associated with response cluster in both trials were further evaluated for influence on fasting glycosylated hemoglobin or glucose levels using analysis of covariance. Sample: Subjects in BMS clinical trials, (Trial A and Trial B) receiving DPP-IV inhibitor ([…]) therapy. All subjects have diabetes and the study group was mixed with respect to age, race and duration of diabetes. Measures: Single nucleotide polymorphisms (SNPs) in a genome-wide panel were genotyped on all subjects essentially as described in Example 1. […] The SNPs that were genotyped likely represent a sample of the polymorphic variation in each gene and are not exhaustive with regard to coverage of the total genetic variation that may be present in each gene. The SNP for which a statistical association to DPP-IV inhibitor-dependent metabolic abnormalities was confirmed is provided in Table III. Statistical Analyses: Initial analysis to determine SNP association with cluster membership was performed using the genotypic test (2-degrees of freedom) implemented in the program PLINK (Purcell et al., 2007 Amer. Journ. Hum […]: a tool set for whole-genome association and population-based linkage analyses). […] Follow-up analysis was performed employing a statistical package, SPSS v.14 (SPSS Inc. Chicago, Ill.). Some SNP associations were also discovered or confirmed using an ANCOVA modeling approach as described below. SNPs that were associated with differential genotype response were identified by a significant difference in HBA1C response (P<=0.05) in two independent trials. Analysis was performed employing a statistical package, SAS v. 8.2 (SAS Institute Inc., Cary, N.C.). […] Baseline glycosylated hemoglobin (HbA1c) and change in HbA1c after twelve weeks (study A) or twenty-four weeks (study B) of DPP-IV inhibitor therapy for each individual were used in this analysis. […] This process was iteratively repeated until all individuals were clustered into groups, either non-responders (poor response to saxagliptin therapy) or super responders (response to saxagliptin therapy). The two-step clustering routine implemented in SPSS version 12 (Chicago, Ill., US) was used. Differences in means between clusters for HbA1c were evaluated using Kruskal-Wallis test. […] The ANCOVA model provides an estimate of mean final HbA1C after treatment for different genotypes, taking into account clinical and demographic information. […] The SNP genotype was included in the model and the difference in HbA1c was estimated between wildtype homozygous and heterozygous or rare homozygous individuals. SNPs that were associated with differential genotype response were identified by a significant (P<=0.05) difference (in the same direction) in HBA1C response between genotypes in two independent trials. Analysis was performed using contrast estimates with the GLM procedure in SAS v. 8.2 (SAS Institute Inc., Cary, N.C.).

[2] = Saxagliptin clinical trials: fasting glucose response by GRINL1A genotype
Experimental: (§1) SNPs from the genome-wide SNP panel were tested for association with response to DPP-IV inhibitors by two analytical methodologies. In one method, SNPs were identified with significant differences in mean HBA1C response among individuals with different genotypes on treatment, taking into account covariates such as demographic differences with an analysis of covariance (ANCOVA) statistical model. SNPs with consistent in their effect on HBA1C in both trials were considered for further evaluation. In a second method, SNPs were examined for association with response cluster. SNPs consistently associated with response cluster in both trials were further evaluated for influence on fasting glycosylated hemoglobin or glucose levels using analysis of covariance.
(§2) Sample: Subjects in BMS clinical trials, (Trial A and Trial B) receiving DPP-IV inhibitor (saxigliptin) therapy. All subjects have diabetes and the study group was mixed with respect to age, race and duration of diabetes. Measures: Single nucleotide polymorphisms (SNPs) in a genome-wide panel were genotyped on all subjects essentially as described in Example 1. […] The SNPs that were genotyped likely represent a sample of the polymorphic variation in each gene and are not exhaustive with regard to coverage of the total genetic variation that may be present in each gene. […] Statistical Analyses: Initial analysis to determine SNP association with cluster membership was performed using the genotypic test (2-degrees of freedom) implemented in the program PLINK (Purcell et al., 2007 Amer. Journ. Hum Genet. 81: 559-75. PLINK: a tool set for whole-genome association and population-based linkage analyses). […] Follow-up analysis was performed employing a statistical package, SPSS v.14 (SPSS Inc. Chicago, Ill.). […] SNPs that were associated with differential genotype response were identified by a significant difference in HBA1C response (P<=0.05) in two independent trials. Analysis was performed employing a statistical package, SAS v. […] Differences in means between clusters for HbA1c were evaluated using Kruskal-Wallis test.

[3] = Saxagliptin clinical trials: AUC glucose response by GRINL1A genotype
Experimental: as §1, §2

Question: For `N#C[C@@H]1C[C@@H]2C[C@@H]2N1C(=O)[C@@H](N)C12CC3CC(CC(O)(C3)C1)C2` [saxagliptin, (1S,3S,55)-2-[(2S)-2-amino-2-(3-hydroxytricyclo[3.3.1.1^3,7]dec-1-yl)-1-oxoethyl]-2-azabicyclo[3.1.0]hexane-3-carbonitrile], which “mean change in HbA1c levels” value ([1]; FIG. 9, GRINL1A position 87,992, reference carriers vs SNP variant carriers) is on record?
Answer: The value was “higher reduction in mean glycosylated hemoglobin”.

Question: And the “mean change in HbA1c levels” value ([1]; FIG. 12, HSD11B1 position 34,403, reference carriers vs SNP carriers)?
Answer: Its value is “higher reduction in mean glycosylated hemoglobin”.

Question: And the “mean change in HbA1c levels” value ([1]; FIG. 13, CHST10 position 24,707, reference carriers vs SNP carriers)?
Answer: The value was “higher reduction in mean glycosylated hemoglobin”.

Question: What about the “mean change in HbA1c levels” value ([1]; FIG. 14, CHST10 position 34,078, reference carriers vs SNP carriers) of the same compound?
Answer: The value was “higher reduction in mean glycosylated hemoglobin”.

Question: And the “mean change in HbA1c levels” value ([1]; FIG. 15, CHST10 position 35,799, reference carriers vs SNP carriers)?
Answer: Its value is “higher reduction in mean glycosylated hemoglobin”.

Question: What about the “mean change in HbA1c levels” value ([1]; FIG. 16, CHST10 position 38,709, reference carriers vs SNP carriers) of the same compound?
Answer: The value was “higher reduction in mean glycosylated hemoglobin”.

Question: And the “mean change in HbA1c levels” value ([1]; FIG. 17, CHST10 position 38,947, reference carriers vs SNP carriers)?
Answer: The value was “higher reduction in mean glycosylated hemoglobin”.

Question: What about the “mean change in HbA1c levels” value ([1]; FIG. 18, CHST10 position 41,180, reference carriers vs SNP carriers) of the same compound?
Answer: The value was “higher reduction in mean glycosylated hemoglobin”.

Question: What about the “mean change in HbA1c levels following saxagliptin treatment” value ([1]; Trial A and Trial B, variant SNP carriers at positions 24,707, 34,078, 35,799, 38,709, 38,947 or 41,180 of SEQ ID NO: 5 (CHST10), compared with reference allele homozygotes) of the same compound?
Answer: The value was “little change in HbA1c levels”.

Question: What about the “mean HbA1C in response to therapy” value ([1]; homozygous reference allele (T/T) vs heterozygous (T/C) individuals at position 26,472 of SEQ ID NO: 63 or 64 (TEKT5), both trials) of the same compound?
Answer: Its value is “lower mean HbA1C in response to therapy than heterozygous individuals”.

Question: What about the “mean change in HbA1c levels following saxagliptin treatment” value ([1]; reference allele homozygotes at position 34,403 of SEQ ID NO: 3 or 4 (HSD11B1), compared to carriers of the variant allele) of the same compound?
Answer: Its value is “greaterreduction in mean HbA1c levels”.

Question: What about the “mean change in HbA1c levels following saxagliptin treatment” value ([1]; subjects homozygous for the reference allele (T/T) at position 87,992 of SEQ ID NO: 1 or 2 (GRINL1A)) of the same compound?
Answer: The value was “significant reduction in mean HbA1c levels”.

Question: What about the “mean change in HbA1c levels following saxagliptin treatment” value ([1]; variant SNP carriers (C/T or C/C) at position 87,992 of SEQ ID NO: 1 or 2 (GRINL1A)) of the same compound?
Answer: Its value is “little change in HbA1c levels”.

Question: And the “mean change in HbA1c levels following saxagliptin treatment” value ([1]; variant SNP carriers at position 34,403 of SEQ ID NO: 3 or 4 (HSD11B1))?
Answer: Its value is “little change in HbA1c levels”.

Question: What about the “mean change in fasting glucose levels” value ([2]; FIG. 10, GRINL1A position 87,992, reference carriers vs SNP carriers) of the same compound?
Answer: The value was “higher reduction in mean fasting glucose levels”.

Question: What about the “mean change in fasting glucose levels following saxagliptin treatment” value ([2]; subjects homozygous for the reference allele (T/T) at position 87,992 of SEQ ID NO: 1 (GRINL1A), compared to carriers of the variant allele) of the same compound?
Answer: The value was “significant reduction in the mean fasting glucose levels”.

Question: And the “mean change in fasting glucose levels following saxagliptin treatment” value ([2]; variant SNP carriers (C/T or C/C) at position 87,992 of SEQ ID NO: 1 (GRINL1A), compared with matched placebo controls)?
Answer: The value was “little change in the fasting glucose levels”.

Question: And the “mean change in AUC Glucose levels” value ([3]; FIG. 11, GRINL1A position 87,992, reference carriers vs SNP carriers)?
Answer: The value was “higher reduction in AUC Glucose levels”.

Question: What about the “mean change in AUC glucose levels following saxagliptin treatment” value ([3]; GRINL1A variant SNP carriers) of the same compound?
Answer: The value was “little change in the AUC glucose levels”.

Question: And the “mean change in AUC glucose levels following saxagliptin treatment” value ([3]; those homozygous for the GRINL1A reference allele)?
Answer: The value was “significant reduction in the AUC glucose levels”.
